The values that follow come from publication PMC9031611 (Journal of Clinical Medicine, 2022).

The nature of data set [1]: Pharmacokinetics assessments in phase I patients (plasma, steady state). The following applies: for Tmax,ss: median (range); for AUC: AUC0→τ,ss. The method, then: This was a dual-agent, open-label, phase I study. […] We conducted the trial following the 3 + 3 dose-escalation phase I clinical trial design. […] There were three cohorts and at least […] were enrolled for each dose level. No intra-patient dose escalation was allowed, and each patient’s first dose was at least 5 days apart from the next patient’s first dose. DLTs were assessed during the initial 8-week and 4-week treatment periods for Cohort 1 and Cohorts 2/3, respectively. The criteria for DLTs are listed in Supplementary Table S1. […] The enrolled patients were treated until disease progression.
A plasma concentration–time profile for MG005 as a single agent was established, and PK parameters in terms of the following were also determined: peak plasma concentration (Cmax)/at steady state (Cmax,ss); time to reach peak concentration (Tmax)/at steady state (Tmax,ss); AUC in 1 dosing interval at steady state (AUC0→τ,ss).

Data set [2] can be described thus: Solubility of MG005 and MG010. Format: physicochemical. The following applies: in words.
The conditions of data set [3]: cited from earlier work.
Details of data set [4]: method as in PMID 26100670. The following applies: in vitro and in vivo studies; cited from earlier work.
For data set [5] the following is noted: cited from earlier work. This is another data set of the same source.
[6] abbreviates: Day 28, Cohort 2: 1500 mg QD MG005 plus 200 mg QD sorafenib.
The mark [7] stands for this setting: Day 28, Cohort 1: 750 mg QD MG005 plus 200 mg QD sorafenib, mean ± SD.
[8] abbreviates: Day 28, Cohort 2: 1500 mg QD MG005 plus 200 mg QD sorafenib, mean ± SD.
[9] abbreviates: Day 28, Cohort 3: 750 mg BID MG005 plus 200 mg QD sorafenib, mean ± SD.

Like-named read-outs stand apart in the source and are kept apart here.

As to `CNC(=O)c1cc(Oc2ccc(NC(=O)Nc3ccc(Cl)c(C(F)(F)F)c3)cc2)ccn1` [sorafenib, reference compound], in data set [1] (setting [6]), the “Tmax,ss” value is 8.0 (2.1–23.5) Hr. Also, the AUC (in general, the area under the concentration-time curve, a measure of exposure) in data set [1] (human, plasma, oral, Day 28, Cohort 1: 750 mg QD MG005 plus 200 mg QD sorafenib, mean ± SD) stood at 88600 ng·h/mL; in data set [1] (human, plasma, oral, Day 28, Cohort 2: 1500 mg QD MG005 plus 200 mg QD sorafenib, mean ± SD), 51400 ng·h/mL; in data set [1] (human, plasma, oral, Day 28, Cohort 3: 750 mg BID MG005 plus 200 mg QD sorafenib, mean ± SD), 30600 ng·h/mL. Also, the highest concentration (Cmax) (usually the peak of the concentration-time curve) in data set [1] (human, plasma, oral, Cmax,ss, Day 28, Cohort 2: 1500 mg QD MG005 plus 200 mg QD sorafenib, mean ± SD) stood at 3730 ± 1530 ng/mL.
Turning to `O=C1Nc2ccc(I)cc2/C1=C/c1cc(Br)c(O)c(Br)c1` [GW5074], the solubility result is listed as “not satisfactory” in data set [2] and “poor solubility” in data set [2] (listed as MG005). The “findings of repeated toxicity studies” value was “did not cause major abnormality except emesis and watery stool” in data set [3] (rat, in vivo); “did not cause major abnormality except emesis and watery stool” in data set [5] (dog, in vivo). Also, the “no-observed-adverse-effect-level (NOAEL)” value in data set [3] (repeated dosing) and in data set [5] (repeated dosing) was “highest dose levels tested” in each case. Further, the mutagenicity and genotoxicity entry in data set [4] is on record as “neither mutagenic nor genotoxic”. For the same compound, the figures for the “AUC0→τ,ss” value in data set [1] (setting [7]), in data set [1] (setting [8]) and in data set [1] (setting [9]) were 5639.9 ± 2675.9 ng·h/mL, 5553.7 ± 950.2 ng·h/mL and 6249.6 ± 2619.6 ng·h/mL, respectively. For the same compound, the “Cmax,ss” value stood at 685.6 ± 335.4 ng/mL in data set [1] (setting [7]), 786.0 ± 180.0 ng/mL in data set [1] (setting [8]) and 620.0 ± 382.6 ng/mL in data set [1] (setting [9]). For the same compound, the “Tmax,ss” value in data set [1] (Day 28, Cohort 1: 750 mg QD MG005 plus 200 mg QD sorafenib) is 6.0 (5.0–6.0) Hr; in data set [1] (setting [6]), 4.0 (2.1–4.1) Hr; in data set [1] (Day 28, Cohort 3: 750 mg BID MG005 plus 200 mg QD sorafenib), 14.0 (0.0–23.9) Hr. In data set [1] (patients, oral), the bioavailability entry is listed as “low bioavailability”. In addition, in data set [1] (patients, 750 mg QD to 1500 mg QD gave no significant increase in bioavailability), the absorption result was “poor absorption”. Moreover, in data set [1] (patients, compared to sorafenib), the half-life result was “significantly shorter half-life when compared to sorafenib”.
